We go through one compound from publication PMC5501398 (PLoS ONE, 2017).

The experiment concerns the target T1, VcIIPK (Vibrio cholerae, UniProt Q9KQJ0).
T1 construct: gene VC_2008
Briefly: biochemical.

T1 sequence (Q9KQJ0 1-481 limits assumed): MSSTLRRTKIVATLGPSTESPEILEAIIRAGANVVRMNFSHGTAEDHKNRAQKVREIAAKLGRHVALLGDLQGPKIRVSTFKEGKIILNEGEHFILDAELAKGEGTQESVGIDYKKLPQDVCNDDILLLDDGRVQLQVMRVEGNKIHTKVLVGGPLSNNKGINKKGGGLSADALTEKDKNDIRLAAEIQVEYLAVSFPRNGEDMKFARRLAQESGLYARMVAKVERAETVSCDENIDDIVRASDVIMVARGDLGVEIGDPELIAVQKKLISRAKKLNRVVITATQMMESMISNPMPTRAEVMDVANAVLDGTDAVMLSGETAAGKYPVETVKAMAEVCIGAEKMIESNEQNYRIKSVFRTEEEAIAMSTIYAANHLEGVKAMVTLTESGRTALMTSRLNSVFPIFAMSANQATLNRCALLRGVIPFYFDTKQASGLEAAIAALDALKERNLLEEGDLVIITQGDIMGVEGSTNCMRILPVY

`O=C(O)C(=O)O` [oxalate] came in with a Ki of 71 ± 6 µM.

What is called Ki is a dissociation constant, usually derived from enzyme kinetics or from competition with a known ligand. High values mean weaker binding, low ones tighter binding.
